# Source: BindingDB's records for doi:10.1016/j.bmc.2011.05.013 (University of Auckland, 2011)
# pIC50: −log10 of the molar value.
# Assay: Inhibition of recombinant perforin mediated lysis of human Jurkat cells pre-incubated for 30 mins with perforin followed by incubation with Jurkat cells at 37 degC for 4 hrs in presence of 0.1% BSA by [51Cr] release assay
row,pIC50,Compound
1,5.16,CN(C)C(=O)COc1ccc(-c2c(C#N)c(N)n3c(nc4ccccc43)c2C#N)cc1
2,5.54,N#Cc1c(-c2ccc(OCCO)cc2)c(C#N)c2nc3ccccc3n2c1N
3,5.13,COc1cccc2c1nc1c(C#N)c(-c3ccc(OCC(N)=O)cc3)c(C#N)c(N)n12
4,< 4.70,CN(C)C(=O)CCc1ccc(-c2c(C#N)c(N)n3c(nc4ccccc43)c2C#N)cc1
5,5.17,N#CC(=Cc1ccc(OCC(N)=O)cc1)c1nc2cccc(Cl)c2[nH]1
6,< 4.70,CN(C)CCNC(=O)c1ccc(-c2c(C#N)c(N)n3c(nc4ccccc43)c2C#N)cc1
7,5.13,CCNC(=O)COc1ccc(-c2c(C#N)c(N)n3c(nc4ccccc43)c2C#N)cc1
8,4.98,N#Cc1c(-c2ccc(C(=O)NCCc3ccncc3)cc2)c(C#N)c2nc3ccccc3n2c1N
9,5.00,N#Cc1c(-c2ccc(OCC(=O)NCCc3ccncc3)cc2)c(C#N)c2nc3ccccc3n2c1N
10,5.52,N#Cc1c(-c2ccc(C(N)=O)cc2)c(C#N)c2nc3ccccc3n2c1N
11,< 4.70,CN(C)C(=O)c1ccc(-c2c(C#N)c(N)n3c(nc4ccccc43)c2C#N)cc1
12,5.08,N#Cc1c(-c2ccc(OCC(=O)NCCO)cc2)c(C#N)c2nc3ccccc3n2c1N
13,5.45,Cc1cc2nc3c(C#N)c(-c4ccc(OCC(N)=O)cc4)c(C#N)c(N)n3c2cc1C
14,< 4.70,CC(O)CNC(=O)COc1ccc(-c2c(C#N)c(N)n3c(nc4ccccc43)c2C#N)cc1 (configuration not stated)
15,5.34,CNC(=O)COc1ccc(-c2c(C#N)c(N)n3c(nc4ccccc43)c2C#N)cc1
16,< 4.70,CNC(=O)CCc1ccc(-c2c(C#N)c(N)n3c(nc4ccccc43)c2C#N)cc1
17,5.25,N#Cc1c(-c2ccc(OCC(N)=O)cc2)c(C#N)c2nc3c(Cl)cccc3n2c1N
18,5.29,Cc1cc2nc(C(C#N)=Cc3ccc(OCC(N)=O)cc3)[nH]c2cc1C
19,5.00,N#Cc1c(-c2ccc(C(=O)NCCN3CCOCC3)cc2)c(C#N)c2nc3ccccc3n2c1N

row,pIC50,Compound
1,< 4.70,Cc1ccc2nc(C(C#N)=Cc3ccc(OCC(N)=O)cc3)[nH]c2c1C
2,5.50,CCNC(=O)c1ccc(-c2c(C#N)c(N)n3c(nc4ccccc43)c2C#N)cc1
3,< 4.70,Cc1cccc2[nH]c(C(C#N)=Cc3ccc(OCC(N)=O)cc3)nc12
4,< 4.70,N#Cc1c(-c2ccc(C(=O)NCCN3CCCCC3)cc2)c(C#N)c2nc3ccccc3n2c1N
5,4.86,CCCNC(=O)COc1ccc(-c2c(C#N)c(N)n3c(nc4ccccc43)c2C#N)cc1
6,5.28,Cc1ccc2c(nc3c(C#N)c(-c4ccc(OCC(N)=O)cc4)c(C#N)c(N)n32)c1C
7,5.28,N#Cc1c(-c2ccc(OCC(N)=O)cc2)c(C#N)c2nc3ccccc3n2c1N
8,5.26,CC(O)CNC(=O)c1ccc(-c2c(C#N)c(N)n3c(nc4ccccc43)c2C#N)cc1 (configuration not stated)
9,4.88,CC(C)NC(=O)COc1ccc(-c2c(C#N)c(N)n3c(nc4ccccc43)c2C#N)cc1
10,5.98,CNC(=O)c1ccc(-c2c(C#N)c(N)n3c(nc4ccccc43)c2C#N)cc1
11,5.49,N#Cc1c(-c2ccc(C(=O)NCC(O)CO)cc2)c(C#N)c2nc3ccccc3n2c1N (configuration not stated)
12,5.51,N#Cc1c(-c2ccc(C(=O)NCCO)cc2)c(C#N)c2nc3ccccc3n2c1N
13,< 4.70,N#Cc1c(-c2ccc(OCC(=O)NCCCO)cc2)c(C#N)c2nc3ccccc3n2c1N
14,< 4.70,N#CC(=Cc1ccc(OCC(N)=O)cc1)c1nc2ccccc2[nH]1
15,5.38,N#Cc1c(-c2ccc(C(=O)NCCCO)cc2)c(C#N)c2nc3ccccc3n2c1N
16,< 4.70,COc1cccc2[nH]c(C(C#N)=Cc3ccc(OCC(N)=O)cc3)nc12
17,< 4.70,N#Cc1c(-c2ccc(OCC(=O)NCC(O)CO)cc2)c(C#N)c2nc3ccccc3n2c1N (configuration not stated)
18,5.16,Cc1cccc2c1nc1c(C#N)c(-c3ccc(OCC(N)=O)cc3)c(C#N)c(N)n12
